Entries after “also recorded” stand apart in the source; their conditions may differ.
What was measured:
[1] = tested on: Swiss mice; experiment: Locomotor activity test; format: in vivo, mouse
[2] = target: T1, 5-HT1A receptor (Rattus norvegicus, UniProt P19327); experiment: [3H]-8-OH-DPAT radioligand binding assay, rat cortex membranes; conditions: for Ki: [3H]-8-OH-DPAT binding, means ±SEM; for inhibition at 300 µM: read-out: Inhibition at 300 µM
T1 construct: from tissue; host or cells: rat (male Wistar) brain cortex membranes
T1 sequence (P19327 1-422): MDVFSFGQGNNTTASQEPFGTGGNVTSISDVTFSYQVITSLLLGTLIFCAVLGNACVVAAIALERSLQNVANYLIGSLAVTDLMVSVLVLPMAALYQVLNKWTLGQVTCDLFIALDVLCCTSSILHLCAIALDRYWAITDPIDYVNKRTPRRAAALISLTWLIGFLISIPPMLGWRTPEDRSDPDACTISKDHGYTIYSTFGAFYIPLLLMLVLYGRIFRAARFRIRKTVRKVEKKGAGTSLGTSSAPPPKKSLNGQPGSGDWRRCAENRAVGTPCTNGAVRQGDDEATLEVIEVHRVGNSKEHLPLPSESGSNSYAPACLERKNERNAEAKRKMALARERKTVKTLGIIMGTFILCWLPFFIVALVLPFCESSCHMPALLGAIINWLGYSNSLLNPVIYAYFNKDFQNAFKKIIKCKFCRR

[3] = tested on: Swiss mice; experiment: Tail suspension test; format: in vivo, mouse; conditions: for immobility time, acute treatment: ip 30 min before, 6, 67 at 3 and 10 mg/kg, 69 at 1, 3, 10, 30 mg/kg, imipramine 30 mg/kg
Procedure: The antidepressant-like activity was screened with the widely used tail suspension test. At 30 min before the behavioral assays, the mice were treated with 6, 67, and 69 at 3 mg/kg and 10 mg/kg ip, with 69 also at 1 mg/kg and 30 mg/kg ip, or were injected with 0.9% saline as control. Imipramine (30 mg/kg ip) was used as the reference drug.
(A) Effects of acute ip treatment with 6 (3, 10 mg/kg, n = 13, 9), 67 (3, 10 mg/kg, n = 6, 10), and 69 (1, 3, 10, 30 mg/kg, n = 8, 7, 8, 6) and imipramine (30 mg/kg, n = 8) in the tail suspension test. […] (B) Effects of acute ip treatment with 6 (3, 10 mg/kg, n = 8, 8), 67 (1, 3, 6 mg/kg; n = 5, 5, 5), and 69 (1, 3, 6 mg/kg, n = 10, 5, 5) on locomotor activity of the mice. […] (C) Effects of 10-day chronic ip treatment with 69 (0.3 mg/kg, daily; n = 10) in the tail suspension test. Data are mean values ± SEM of the immobility time, compared to control mice (n = 8): ∗∗, p < 0.01 (unpaired t-test). […]
quality control sample every seven test samples. The absolute matrix effect was checked by comparing the analyte responses in the standard solutions to the samples spiked in the tissue incubation medium from the control experiment without the analyte, and a deviation of less than ±20% was deemed acceptable.
4.2.10In vitro radioligand binding assay
Rats were humanely killed by decapitation and their brains were removed, washed and rapidly dissected on ice. Homogenisation was performed using a homogeniser (PRO Scientific Inc) at 30,000 rpm for 1 min. For 5-HT1A binding assays, the cortex tissues were homogenised in 30 volumes/weight ice-cold 50 mM Tris–HCl buffer (pH 7.4), and the homogenate was centrifuged at 40,000× g for 15 min at 0 °C to 4 °C. The resulting pellets were resuspended in 30 volumes/weight of the same buffer, and incubated at 37 °C for 20 min. The centrifugation step was repeated twice under the same conditions as described above, and the final pellets were resuspended in 30 volumes/weight 50 mM Tris–HCl buffer (pH 7.4), and stored at –80 […]
For the [3H]-8-OH-DPAT binding assay (the 5-HT1A receptor binding assay), the membranes were thawed and resuspended in 50 mM Tris–HCl (pH 7.4) with 1 mM MnCl2, to a final protein concentration of 0.5 mg/mL. The incubation was carried out at 25 °C for 1 h in a final volume of 1 mL membrane suspension in the presence of the sample assayed and with 0.2 nM [3H]-8-OH-DPAT (170.2 Ci/mmol). Serotonin was used as the positive control. Non-specific binding was determined in parallel incubations in the presence of serotonin (10 μM).
4.2.11 Tail suspension test
The tail suspension test was carried out according to the methodology proposed by Steru and co-workers.22 The mice were individually suspended by the tail from a metal hook (distance

[4] = tested on: Swiss mice; experiment: Elevated plus maze test; format: in vivo, mouse
[5] = Thermodynamic solubility in PBS; format: physicochemical; conditions: PBS (pH 7.4), 37 °C, 24 h, hydrochloride salts
[6] = tested on: SH-SY5Y cells; experiment: MTS cytotoxicity assay; conditions: 24 h, 5 μM and 10 μM
[7] = In vitro permeability, rat intestine in diffusion chambers; format: in vitro ADME
[8] = tested on: MAO-A/B; experiment: In vitro MAO inhibition in mouse brain homogenate, p-tyramine substrate; format: biochemical
[9] = Chemical stability and photoisomerization by proton NMR in D2O; format: physicochemical; conditions: hydrochloride salts, more than 1 year at room temperature protected from sunlight, 1H NMR in D2O
Procedure: Possible chemical instability and photoisomerization of E/Z isomers were also addressed as these are known liabilities of stilbene derivatives.[23] Proton NMRs of 69 (cis derivative), 84 (trans derivative), and 100 (ethyl analogue) in the form of hydrochloride salts were recorded in D2O (Figures S1–S3). […] The samples dissolved in the NMR tubes were then left on the benchtop exposed to natural daylight for 7 days, which could induce photoisomerization. […] Altogether, these studies imply reasonable stability of the compounds.
Figure S2. […] Compound 84 (trans isomer, […]
hydrochloride salt) was dissolved in D2O and the spectra were recorded at time 0 h, 1 h, 24 h and 7 days. Sample was exposed to day light in between the measurement, which could induce photoisomerization and potentially also chemical degradation.
The sample was previously stored at […]

[10] = tested on: Swiss mice; experiment: Body mass and survival during 10-day treatment; format: in vivo; conditions: 0.3 mg/kg ip daily
Procedure: Figure S9. In vivo effects of chronic treatment on body mass. Body mass variation (Percent weight) (mean ±SEM) in mice throughout the 10-day i.p. treatment with 69 (0.3 mg/kg; n = 10), 100 (0.3 mg/kg; n = 8) and saline (SAL; n = 16). Data are means ±SEM. All animals survived the treatments.

[11] = target: T2, hMAO-A (Homo sapiens, UniProt P21397); experiment: hMAO-A inhibition, HRP–Amplex Red coupled fluorimetric assay; format: biochemical; conditions: supplement csv; RA at 100 micromolar
T2 construct: purchased Sigma Aldrich; host or cells: baculovirus-infected insect cells (BTI-TN-5B1-4)
T2 sequence (P21397 1-527): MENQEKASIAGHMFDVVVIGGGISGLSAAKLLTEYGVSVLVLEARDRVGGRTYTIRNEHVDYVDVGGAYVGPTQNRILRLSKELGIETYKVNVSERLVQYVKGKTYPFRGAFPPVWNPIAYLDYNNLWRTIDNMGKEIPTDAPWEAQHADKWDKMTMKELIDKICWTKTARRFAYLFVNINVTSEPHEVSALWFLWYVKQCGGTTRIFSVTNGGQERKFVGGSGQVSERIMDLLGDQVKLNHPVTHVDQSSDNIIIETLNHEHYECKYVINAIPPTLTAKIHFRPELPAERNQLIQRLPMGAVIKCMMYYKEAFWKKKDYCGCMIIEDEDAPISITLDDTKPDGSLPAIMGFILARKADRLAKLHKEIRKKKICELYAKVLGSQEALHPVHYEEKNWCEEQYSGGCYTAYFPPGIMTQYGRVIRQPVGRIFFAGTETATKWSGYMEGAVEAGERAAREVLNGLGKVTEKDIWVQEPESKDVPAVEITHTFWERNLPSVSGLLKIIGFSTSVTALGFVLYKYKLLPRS

[12] = tested on: Swiss mice; experiment: Haloperidol-induced catalepsy test; format: in vivo, mouse; conditions: 5 mg/kg, reference drug

| SMILES | Ki [2] [nM] | inhibition at 300 µM [2] [%] | thermodynamic solubility [5] | immobility time, acute treatment [3] | Open arm entries (%) ([4]; acute ip, 3 mg/kg) | Time in centre (%) ([4]; acute ip, 3 mg/kg) | Time in open arms (%) ([4]; acute ip, 3 mg/kg) | Total arm entries ([4]; acute ip, 3 mg/kg) | cytotoxic effects [6] | Open arm entries (%) ([4]; acute ip, 6 mg/kg) | Time in centre (%) ([4]; acute ip, 6 mg/kg) | Time in open arms (%) ([4]; acute ip, 6 mg/kg) | Total arm entries ([4]; acute ip, 6 mg/kg) | chemical stability on storage [9] | also measured |
| --- | --- | --- | --- | --- | --- | --- | --- | --- | --- | --- | --- | --- | --- | --- | --- |
| C#CCN1CCC(/C=C\c2cccc(F)c2)CC1 [Compound 69, (Z)-4-(3-Fluorostyryl)-1-(prop-2-yn-1-yl)piperidine] | 1700 ± 120 | 92 | ≥ 8.6 g/250 mL | did not decrease the immobility time | 28.0 ±2.9 | 38.0 ±2.9 | 19.8 ±1.6 | 22.9 ±1.6 | no significant cytotoxic effects | 13.3 ±1.2 | 41.4 ±4.1 | 7.1 ±1.6 | 20.4 ±1.3 | no signs of chemical instability | locomotor activity ([1]; 10-day treatment, 0.3 mg/kg, 5-min session): 598.3 ±14.7 counts; effects in the locomotor activity test, chronic low dose ([1]; 10-day, 0.3 mg/kg ip daily): No significant effects; locomotion ([1]; acute 3 mg/kg ip): not altered; Papp A→B at 50 µM ([7]; male, Sprague-Dawley, pH 7.4, rat intestine, 50 μM donor, mean ± SEM, read-out: apparent permeability coefficient, absorptive direction): 10.8 ± 1.3 ×10⁻⁶ cm/s; Papp B→A at 50 µM ([7]; male, Sprague-Dawley, pH 7.4, rat intestine, 50 μM donor, mean ± SEM, read-out: apparent permeability coefficient, eliminatory direction): 35.4 ± 9.9 ×10⁻⁶ cm/s; permeability classification ([7]; rat intestine in vitro): intermediate/moderate permeability; immobility time, chronic treatment ([3]; 10-day, 0.3 mg/kg ip daily): significantly decreased the immobility time; residual activity, p-tyramine (0.5 mM), in vitro ([8]; 50 μM compound, homogenate from nontreated mice): 31.3 ± 0.2%; body mass variations versus control mice [10]: No significant differences; Time in centre (%) ([4]; 10-day treatment, 0.3 mg/kg): 28.8 ±4.5%; Time in open arms (%) ([4]; 10-day treatment, 0.3 mg/kg): 11.8 ±3.7%; effects in the elevated plus maze, chronic low dose ([4]; 10-day, 0.3 mg/kg ip daily): No significant effects; Open arm entries (%) ([4]; acute ip, 1 mg/kg): 15.9 ±5.1%; Time in centre (%) ([4]; acute ip, 1 mg/kg): 36.4 ±7.7%; Total arm entries ([4]; acute ip, 1 mg/kg): 17.4 ±2.5 |
| CN1[C@@H]2C[C@@H](OC(=O)[C@H](CO)c3ccccc3)C[C@H]1[C@@H]1O[C@@H]12 [Scopolamine, reference compound] | – | – | – | – | – | – | – | – | – | – | – | – | – | – | latency time to descend from the bar [12]: significantly decreased the latency time |
| NCCc1ccc(O)cc1 [p-Tyramine, reference compound] | – | – | – | – | – | – | – | – | – | – | – | – | – | – | K0.5 ([8]; substrate of MAO A/B, control mouse brain homogenates): 0.071 ± 0.032 mM |

Continued, in another order:

| Ki [2] [nM] | inhibition at 300 µM [2] [%] | thermodynamic solubility [5] | SMILES | immobility time, acute treatment [3] | Open arm entries (%) ([4]; acute ip, 3 mg/kg) | Time in centre (%) ([4]; acute ip, 3 mg/kg) | Time in open arms (%) ([4]; acute ip, 3 mg/kg) | Total arm entries ([4]; acute ip, 3 mg/kg) | cytotoxic effects [6] | Open arm entries (%) ([4]; acute ip, 6 mg/kg) | Time in centre (%) ([4]; acute ip, 6 mg/kg) | Time in open arms (%) ([4]; acute ip, 6 mg/kg) | Total arm entries ([4]; acute ip, 6 mg/kg) | chemical stability on storage [9] | also measured |
| --- | --- | --- | --- | --- | --- | --- | --- | --- | --- | --- | --- | --- | --- | --- | --- |
| 2400 ± 600 | 88 | at least 17.6 g/250 mL | C#CCN1CCC(/C=C\c2ccc(F)cc2)CC1 [Compound 6, (Z)-4-(4-Fluorostyryl)-1-(prop-2-yn-1-yl)piperidine] | significantly reduced | 10.8 ±2.6 | 43.5 ±2.8 | 9.1 ±1.9 | 22.0 ±1.5 | no significant cytotoxic effects | – | – | – | – | – | spontaneous locomotor activity ([1]; acute 10 mg/kg ip): significantly decreased; increase in the proportion of open-arm entries ([4]; 10 mg/kg ip, vs 0.9% saline): 2.0 fold; Open arm entries (%) ([4]; acute ip, 10 mg/kg): 27.5 ±3.2%; Time in open arms (%) ([4]; acute ip, 10 mg/kg): 8.4 ±2.7% |
| 700 ± 100 | 96 | ≥ 10.5 g/250 mL | C#CCN1CCC(/C=C\c2ccccc2)CC1 [Compound 67, (Z)-1-(Prop-2-yn-1-yl)-4-styrylpiperidine] | did not decrease the immobility time | 15.0 ±2.3 | 39.8 ±1.7 | 11.9 ±2.3 | 20.6 ±2.4 | no significant cytotoxic effects | 15.6 ±3.4 | 53.1 ±5.7 | 5.4 ±1.0 | 15.4 ±0.8 | – | – |
| – | 48 | – | C#CCN1CCC(/C=C/c2ccc(C(F)(F)F)cc2)CC1 [Compound 84, (E)-1-(Prop-2-yn-1-yl)-4-(4-(trifluoromethyl)styryl)piperidine] | – | – | – | – | – | no significant cytotoxic effects | – | – | – | – | only smaller amounts of impurities were detected; also recorded: partial degradation | IC50(MAO-A) class [11]: na (na-not_active(RA_at_100micromolar>50%)) |
